Holding throughout (test): Checkerboard assay (FIC index)
In one assay the test system is CA-MRSA. Type of assay: cell-based, Staphylococcus aureus. The protocol:
(§1) Checkerboard assays were carried out as described by Bonapace et al.
(§2) Diagnostic Microbiology and Infectious Diseases 2002; 44:363-366. In brief, checkerboard assays were performed in 96 well microtitre trays using an 8-by-8 well configuration. […] 96-well custom designed microtitre plates contained 100 ul/well of cation adjusted Mueller-Hinton broth (eg. for Enterobacteriaceae) with or without lysed horse blood (2-5% V/V) [eg. for S. pneumoniae] and were inoculated to achieve a final concentration of approximately 5×10^5 CFU/ml and incubated in ambient air for 24 hours prior to reading. Colony counts were performed periodically to confirm inocula. Quality control was performed every two weeks using a variety of ATCC QC organisms including; S. pneumoniae 49619, S. aureus 29213, E. faecalis 29212, E. coli 25922 and P. aeruginosa 27853. […] All peptides were assessed for synergy with β-lactams and vancomycin. For all antimicrobials as well as the peptides, CLSI criteria were used.
(§3) The fractional inhibitory concentration index (FIC index) was used to interpret synergy, antagonism or additivity/indifference. FIC index=FIC of drug A+FIC of drug B where:
(§4) The FIC of drug A and drug B was calculated as follows, FIC drug A=MIC of drug A in combination/MIC of drug A alone and FIC of drug B=MIC of drug B in combination/MIC of drug B alone. Synergy was defined as FIC index ≦0.5, additivity/indifference defined as a FIC between 0.5 and 4 and antagonism defined as an FIC index >4.
(§5) The fractional inhibitory concentration index (FIC index) was used to interpret synergy, antagonism or additivity/indifference. FIC index=FIC of drug A+FIC of drug B where the FIC of drug A and drug B was calculated as follows, FIC drug A=MIC of drug A in combination/MIC of drug A alone and FIC of drug B=MIC of drug B in combination/MIC of drug B alone. Synergy was defined as FIC index ≦0.5, additivity/indifference defined as an FIC of between 0.5 and 4 and antagonism defined as an FIC index >4.
(§6) The checkerboard assays were carried out as described by Eliopoulos and Moellering (Chapter 9) in Antibiotic in Laboratory Medicine, Lorian Ed. 1996 as well as Bonapace et al. Diagnostic Microbiology and Infectious Diseases 2002; 44:363-366 and Bonapace et al. Diagnostic Microbiology and Infectious Diseases 2000; 38:43-50. In brief, checkerboard assays were performed in 96 well microtitre trays using an 8-by-8 well configuration. […] 96-well custom designed microtitre plates contained 100 ul/well of cation adjusted Mueller-Hinton broth (eg. for Enterobacteriaceae) with or without lysed horse blood (2-5% V/V) [eg. for S. pneumoniae] and were inoculated to achieve a final concentration of approximately 5×10^5 CFU/ml and incubated in ambient air for 24 hours prior to reading. Colony counts were performed periodically to confirm inocula. Quality control was performed every two weeks using a variety of ATCC QC organisms including; S. pneumoniae 49619, S. aureus 29213, E. faecalis 29212, E. coli 25922 and P. aeruginosa 27853.
(§7) The FIC of drug A and drug B is calculated as follows, FIC drug A=MIC of drug A in combination/MIC of drug A alone and FIC of drug B=MIC of drug B in combination/MIC of drug B alone. Synergy is defined as FIC index ≦0.5, additivity/indifference FIC >0.5-4 and antagonism FIC index >4.
(§8) These agents were obtained as laboratory grade powders from their respective manufacturers. Stock solutions were prepared and dilutions made as described by the Clinical Laboratory Standards Institute (2005 CLSI).

Another assay has as its system HA-MRSA. The assay is classed as cell-based, Staphylococcus aureus. The protocol: as §1, §2, §3, §4, §5, §6, §7, §8
The subject of the next assay is VRSA. Type of assay: cell-based, Staphylococcus aureus. As to the method:
as §1, §2, §3, §4, §5, §6, §7, §8

For the next assay, the system named is S. agalactiae. Type of assay: cell-based, Streptococcus agalactiae. The settings on record: antibiotic combined with PEP35. The protocol:
as §6, with “27853. For all antimicrobials as well as PEP35, CLSI criteria was used.” for “27853.”
as §3, §7
Antimicrobials used included PEP35, cefazolin, ceftriaxone, vancomycin, linezolid, tigecycline and daptomycin versus Gram-positive cocci and PEP35, gentamicin, levofloxacin, piperacillin/tazobactam, meropenem and colistin (Polymyxin E) versus Gram-negative bacilli. These agents were obtained as laboratory grade powders from their respective manufacturers. Stock solutions were prepared and dilutions made as described by the Clinical Laboratory Standards Institute (2005 CLSI).
Organisms included Gram-positive cocci (2 strains of each): Methicillin-susceptible Staphylococcus aureus (MSSA), community-associated (CA) and healthcare-associated (HA) methicillin-resistant Staphylococcus aureus (MRSA), vancomycin-intermediate Staphylococcus aureus (VISA), vancomycin-resistant Staphylococcus aureus (VRSA), methicillin-resistant Staphylococcus epidermidis (MRSE), Streptococcus pyogenes, Streptococcus agalactiae, Streptococcus pneumoniae, Enterococcus faecalis, Enterococcus faecium and vancomycin-resistant enterococcus (VRE). Gram-negative bacilli tested (2 strains of each) included: E. coli, Pseudomonas aeruginosa, Klebsiella pneumoniae, K. oxytoca, Enterobacter cloacae, P. mirabilis and Stenotrophomonas maltophilia. MIC testing, following two subcultures from frozen stock were determined by the CLSI 2005 approved broth microdilution method.

The mark [1] stands for this setting: antibiotic combined with PEP35 (added together), CA-MRSA 69615 (USA400).
[2] abbreviates: antibiotic combined with PEP35 (added together), CA-MRSA 70857 (USA400).
The mark [3] stands for this setting: antibiotic combined with PEP35 (added together), HA-MRSA 70798 (USA100/800).
[4] abbreviates: antibiotic combined with PEP35 (added together), HA-MRSA 77090 (USA100/800).
[5] abbreviates: antibiotic combined with PEP35 (added together), VRSA 105.
The mark [6] stands for this setting: antibiotic combined with PEP35 (added together), VRSA 106.
[7] abbreviates: β-lactam combined with HybPEP35-1, CA-MRSA 69615 (USA400).
Setting [8] is: β-lactam combined with PEP-52, CA-MRSA 69615 (USA400).
[9] abbreviates: β-lactam combined with Scrambled PEP35, CA-MRSA 69615 (USA400).
[10] abbreviates: β-lactam combined with HybPEP35-1, HA-MRSA 70798 (USA100/800).
Setting [11] is: β-lactam combined with PEP-52, HA-MRSA 70798 (USA100/800).
The mark [12] stands for this setting: β-lactam combined with Scrambled PEP35, HA-MRSA 70798 (USA100/800).
Setting [13] is: β-lactam combined with HybPEP35-1, VRSA 106.
The mark [14] stands for this setting: β-lactam combined with PEP-52, VRSA 106.
Where [15] appears, read: β-lactam combined with Scrambled PEP35, VRSA 106.

Where “and” joins values, the source holds several entries; their conditions need not be identical. Equal entries are not always repeated. Marks after values point to notes of the source that are not given here.

In the case of `CC(=O)NC[C@H]1CN(c2ccc(N3CCOCC3)c(F)c2)C(=O)O1` [Linezolid, linezolid], the “Avg ΣFIC (range)” value in the assay with CA-MRSA (setting [1]) is on record as 0.80 (0.515-1.12); with CA-MRSA (setting [2]), 0.89 (0.5-1.12); in the assay on HA-MRSA (setting [3]) it was 0.70 (0.5-1.06); in the assay on HA-MRSA (setting [4]), 0.74 (0.53-1.06); in the assay on VRSA (setting [5]), 0.80 (0.5-1.06); with VRSA (setting [6]) it was 0.83 (0.5-1.12). Further, the “Avg ΣFIC (range)” value in the assay with S. agalactiae (S. agalactiae 80870 (MHB)) is reported as 1.1 (1.0-1.25); with S. agalactiae (S. agalactiae 81262 (MHB)) it was 0.91 (0.53-1.25).

Turning to `CO/N=C(\C(=O)N[C@@H]1C(=O)N2C(C(=O)O)=C(CSc3nc(=O)c(=O)[nH]n3C)CS[C@H]12)c1csc(N)n1` [Ceftriaxone], the “Avg ΣFIC (range)” value with CA-MRSA (setting [2]) was 0.51 (0.18-1.015); with CA-MRSA (setting [7]) it was 0.31; in the assay on CA-MRSA (setting [8]), >0.5*; in the assay on CA-MRSA (setting [9]) it was 0.31; with HA-MRSA (setting [4]), 0.27 (0.09-0.53) and 0.27 (0.09-0.56); in the assay with HA-MRSA (setting [10]), 0.32. For the same molecule, the “Avg ΣFIC (range)” value is >1* in the assay on HA-MRSA (setting [11]); 0.32 in the assay on HA-MRSA (setting [12]); 0.45 (0.24-0.56) and 0.54 (0.18-1.06) in the assay with VRSA (setting [5]); 0.39 with VRSA (setting [13]); >1* in the assay on VRSA (setting [14]); 0.39 in the assay on VRSA (setting [15]). The “Avg ΣFIC (range)” value is recorded as 0.99 (0.53-1.25) in the assay on S. agalactiae (S. agalactiae 80870 (MHB)) and 1.05 (0.75-1.25) with S. agalactiae (S. agalactiae 81262 (MHB)).

As for `CCCCCCCCCC(=O)N[C@@H](Cc1c[nH]c2ccccc12)C(=O)N[C@H](CC(N)=O)C(=O)N[C@@H](CC(=O)O)C(=O)N[C@@H]1C(=O)NCC(=O)N[C@@H](CCCN)C(=O)N[C@@H](CC(=O)O)C(=O)N[C@H](C)C(=O)N[C@@H](CC(=O)O)C(=O)NCC(=O)N[C@H](CO)C(=O)N[C@@H]([C@H](C)CC(=O)O)C(=O)N[C@@H](CC(=O)c2ccccc2N)C(=O)O[C@@H]1C` [Daptomycin, daptomycin], the “Avg ΣFIC (range)” value in the assay on CA-MRSA (setting [1]) is recorded as 1.18 (1.015-1.5); in the assay with CA-MRSA (setting [2]) it was 1.18 (1.015-1.5); in the assay on HA-MRSA (setting [3]), 0.99 (0.53-1.5); in the assay on HA-MRSA (setting [4]), 1.27 (1.015-2.03); in the assay with VRSA (setting [5]) it was 0.52 (0.37-0.62); with VRSA (setting [6]), 0.91 (0.56-1.25). Also, the “Avg ΣFIC (range)” value in the assay on S. agalactiae (S. agalactiae 80870 (MHB)) is recorded as 0.83 (0.53-1.12); in the assay on S. agalactiae (S. agalactiae 81262 (MHB)), 1.69 (1.06-2.5).

Consider `Cc1nnc(SCC2=C(C(=O)O)N3C(=O)[C@@H](NC(=O)Cn4cnnn4)[C@H]3SC2)s1` [Cefazolin], for which the “Avg ΣFIC (range)” value in the assay on CA-MRSA (setting [2]) is 0.3 (0.12-0.56) and 0.26 (0.09-0.53); in the assay with CA-MRSA (setting [7]), 0.24; in the assay with CA-MRSA (setting [8]), >0.5*; with CA-MRSA (setting [9]), 0.24; with HA-MRSA (setting [4]), 0.30 (0.12-0.56) and 0.24 (0.075-0.53); in the assay on HA-MRSA (setting [10]) it was 0.35. In addition, the “Avg ΣFIC (range)” value is >1* in the assay with HA-MRSA (setting [11]); 0.35 in the assay on HA-MRSA (setting [12]); 0.63 (0.5-1.015) in the assay on VRSA (setting [5]); 0.52 in the assay on VRSA (setting [13]); >1* in the assay on VRSA (setting [14]); 0.52 in the assay with VRSA (setting [15]). In addition, the “Avg ΣFIC (range)” value is recorded as 0.92 (0.56-1.25) in the assay on S. agalactiae (S. agalactiae 80870 (MHB)) and 1.10 (1-1.25) in the assay on S. agalactiae (S. agalactiae 81262 (MHB)).

Take `C[C@@H](O)[C@H]1C(=O)N2C(C(=O)O)=C(S[C@@H]3CN[C@H](C(=O)N(C)C)C3)[C@H](C)[C@H]12` [Meropenem]: the “Avg ΣFIC (range)” value in the assay with CA-MRSA (setting [1]) is 0.49; in the assay on CA-MRSA (setting [7]) it was 0.70; in the assay on CA-MRSA (setting [8]), >1*; with CA-MRSA (setting [9]), 0.70; in the assay on HA-MRSA (setting [3]), 0.30; with HA-MRSA (setting [10]), 0.38. Further, the “Avg ΣFIC (range)” value in the assay on HA-MRSA (setting [11]) is given as >1*; in the assay with HA-MRSA (setting [12]) it was 0.38; with VRSA (setting [6]), 0.91; in the assay on VRSA (setting [13]) it was 0.91; in the assay on VRSA (setting [14]) it was >1*; with VRSA (setting [15]), 0.91.

With `CN[C@H](CC(C)C)C(=O)N[C@H]1C(=O)N[C@@H](CC(N)=O)C(=O)N[C@H]2C(=O)N[C@H]3C(=O)N[C@H](C(=O)N[C@H](C(=O)O)c4cc(O)cc(O)c4-c4cc3ccc4O)[C@H](O)c3ccc(c(Cl)c3)Oc3cc2cc(c3O[C@@H]2O[C@H](CO)[C@@H](O)[C@H](O)[C@H]2O[C@H]2C[C@](C)(N)[C@H](O)[C@H](C)O2)Oc2ccc(cc2Cl)[C@H]1O` [Vancomycin], the “Avg ΣFIC (range)” value in the assay with CA-MRSA (setting [1]) is 1.19 (1.03-1.5); in the assay on CA-MRSA (setting [2]) it was 1.05 (0.75-1.25); in the assay with HA-MRSA (setting [3]), 1.19 (1.03-1.5); in the assay with HA-MRSA (setting [4]) it was 0.95 (0.56-1.25); in the assay with VRSA (setting [5]), 0.3 (0.15-0.53) and 0.49 (0.24-1.06); in the assay with VRSA (setting [6]) it was 0.27 (0.09-0.53) and 0.40 (0.15-1.06). Moreover, the figures for the “Avg ΣFIC (range)” value in the assay on S. agalactiae (S. agalactiae 80870 (MHB)) and with S. agalactiae (S. agalactiae 81262 (MHB)) were 1.05 (0.75-1.25) and 1.1 (1.0-1.25), respectively.

Values taken from US9751919B2, “Antimicrobial compositions comprising a hyaluronic acid binding peptide and a β-lactam antibiotic” (priority 2012, dated 2017).
